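Compound exposure: 48 hours, 5 concentrations, 96-well plates. Abbreviation: GI50, concentration required for 50% inhibition of growth.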 Active and inactive are the calls of the source. Rule as the data show it: active = GI50 up to about 1.1 µM and inactive = higher.
Columns and labels:
Experiment in all cases: inhibition of tumour cell growth, NCI panel, 48 h
786-0 = tested on: 786-0
SK-OV-3 = tested on: SK-OV-3
SR = tested on: SR
TK-10 = tested on: TK-10
LOX IMVI = tested on: LOX IMVI
K562 = tested on: K562
SW-620 = tested on: SW-620
HT-29 = tested on: HT-29
KM12 = tested on: KM12
SNB-75 = tested on: SNB-75
RPMI-8226 = tested on: RPMI-8226
SK-MEL-28 = tested on: SK-MEL-28
M14 = tested on: M14
UACC-257 = tested on: UACC-257
NCI-H23 = tested on: NCI-H23
HL-60 = tested on: HL-60
HCC 2998 = tested on: HCC 2998

Measured: GI50

CC(=O)OCC1OC(N2C(=O)C(=O)c3cc(C)ccc32)C(OC(C)=O)C(OC(C)=O)C1OC(C)=O (configuration not stated)
inactive: 786-0 38.9 µM | SK-OV-3 > 100 µM | SR 15.5 µM | TK-10 > 100 µM | LOX IMVI 17.1 µM | K562 > 100 µM | SW-620 > 100 µM | HT-29 37.2 µM | KM12 > 100 µM | SNB-75 > 100 µM | RPMI-8226 29.4 µM | SK-MEL-28 32.5 µM | M14 66.5 µM | UACC-257 > 100 µM | NCI-H23 52.1 µM | HL-60 22.4 µM

CC(C)(O)[C@@H]1CC[C@@]2(C)CCC[C@H](O)[C@H]2C1
inactive: 786-0 > 100 µM | SK-OV-3 > 100 µM | SR > 100 µM | TK-10 > 100 µM | LOX IMVI > 100 µM | K562 > 100 µM | SW-620 > 100 µM | HT-29 > 100 µM | KM12 > 100 µM | SNB-75 > 100 µM | HCC 2998 > 100 µM | RPMI-8226 > 100 µM | SK-MEL-28 > 100 µM | M14 > 100 µM | UACC-257 > 100 µM | NCI-H23 > 100 µM | HL-60 > 100 µM

Cc1c2c(c(C)c3c1[nH]c1ccccc13)CN(C)CC2
inactive: 786-0 14.9 µM | SK-OV-3 25.5 µM | SR 24.8 µM | TK-10 29.4 µM | LOX IMVI 15.5 µM | K562 31.3 µM | SW-620 15.3 µM | HT-29 16.7 µM | KM12 16.6 µM | SNB-75 13.5 µM | HCC 2998 16.7 µM | RPMI-8226 26.4 µM | SK-MEL-28 19.2 µM | M14 15.1 µM | UACC-257 17.2 µM | NCI-H23 15.4 µM | HL-60 52 µM

Cc1ccc(/C=N/NS(=O)(=O)c2ccccc2)c(C)c1
inactive: 786-0 > 100 µM | SK-OV-3 > 100 µM | SR > 100 µM | TK-10 > 100 µM | LOX IMVI > 100 µM | K562 > 100 µM | SW-620 > 100 µM | HT-29 > 100 µM | KM12 > 100 µM | SNB-75 > 100 µM | HCC 2998 > 100 µM | RPMI-8226 > 100 µM | SK-MEL-28 > 100 µM | M14 > 100 µM | UACC-257 80 µM | NCI-H23 > 100 µM | HL-60 > 100 µM

CCOC(=O)/C(=C/c1ccc(C(F)(F)F)cc1)N(CC)CC
inactive: 786-0 > 100 µM | SK-OV-3 66.4 µM | SR > 100 µM | TK-10 > 100 µM | LOX IMVI > 100 µM | K562 > 100 µM | SW-620 84.1 µM | HT-29 > 100 µM | KM12 44.4 µM | SNB-75 > 100 µM | HCC 2998 > 100 µM | RPMI-8226 > 100 µM | SK-MEL-28 > 100 µM | M14 > 100 µM | UACC-257 66.8 µM | NCI-H23 37.3 µM | HL-60 > 100 µM

Cc1cc(C)cc(NC(N)=S)c1
inactive: 786-0 92.5 µM | SR 33.5 µM | TK-10 > 100 µM | LOX IMVI 29.1 µM | K562 > 100 µM | SW-620 4.06 µM | HT-29 40.9 µM | KM12 > 100 µM | SNB-75 > 100 µM | HCC 2998 > 100 µM | RPMI-8226 31.1 µM | SK-MEL-28 > 100 µM | M14 > 100 µM | UACC-257 36.4 µM | NCI-H23 > 100 µM | HL-60 30.8 µM

O=S(=O)(O)c1cc(O)c2c(O)c(/N=N/c3ccc(/C=C/c4ccc(/N=N/c5c(S(=O)(=O)O)cc6cc(S(=O)(=O)O)cc(O)c6c5O)cc4S(=O)(=O)O)c(S(=O)(=O)O)c3)c(S(=O)(=O)O)cc2c1
inactive: 786-0 > 100 µM | SK-OV-3 > 100 µM | SR > 100 µM | TK-10 > 100 µM | LOX IMVI > 100 µM | K562 > 100 µM | SW-620 > 100 µM | HT-29 > 100 µM | KM12 32.5 µM | SNB-75 > 100 µM | HCC 2998 > 100 µM | RPMI-8226 > 100 µM | SK-MEL-28 > 100 µM | M14 > 100 µM | UACC-257 > 100 µM | NCI-H23 > 100 µM | HL-60 > 100 µM

CCOC(=O)C(Cc1ccc([N+](=O)[O-])cc1)NC(=O)CC1c2ccccc2-c2ccccc21 (configuration not stated)
inactive: 786-0 39.1 µM | SK-OV-3 78.7 µM | SR > 100 µM | TK-10 32.7 µM | LOX IMVI > 100 µM | K562 > 100 µM | SW-620 > 100 µM | HT-29 > 100 µM | KM12 > 100 µM | SNB-75 26.1 µM | HCC 2998 > 100 µM | RPMI-8226 > 100 µM | SK-MEL-28 90.8 µM | M14 22.9 µM | UACC-257 24.5 µM | NCI-H23 > 100 µM | HL-60 > 100 µM

CCC(C)NC1=C(NC(C)=O)C(=O)c2ccccc2C1=O (configuration not stated)
inactive: 786-0 > 7.5 µM | SK-OV-3 > 75 µM | TK-10 > 75 µM | LOX IMVI 15.6 µM | K562 43.9 µM | SW-620 22.5 µM | HT-29 54.1 µM | KM12 > 75 µM | SNB-75 > 75 µM | HCC 2998 > 75 µM | RPMI-8226 13.4 µM | SK-MEL-28 > 75 µM | M14 > 75 µM | UACC-257 > 75 µM | NCI-H23 > 75 µM | HL-60 17.5 µM

C=CCc1cc(OC)c2c(c1)C(O)CC(c1ccccc1)O2 (configuration not stated)
inactive: 786-0 > 100 µM | SK-OV-3 > 100 µM | SR > 100 µM | TK-10 > 100 µM | K562 23.6 µM | SW-620 > 100 µM | HT-29 60.1 µM | KM12 > 100 µM | SNB-75 > 100 µM | HCC 2998 > 100 µM | SK-MEL-28 > 100 µM | M14 > 100 µM | UACC-257 > 100 µM | NCI-H23 > 100 µM | HL-60 35.6 µM

OC1c2ccccc2C2(O)C1C(c1ccccc1)C(c1ccccc1)C2(O)c1ccccc1 (configuration not stated)
inactive: 786-0 11.5 µM | SK-OV-3 22.2 µM | TK-10 23.2 µM | LOX IMVI 5.4 µM | K562 5.71 µM | SW-620 15.8 µM | HT-29 9.86 µM | KM12 10.6 µM | SNB-75 12.1 µM | HCC 2998 11.2 µM | RPMI-8226 4.65 µM | SK-MEL-28 11.9 µM | M14 13.7 µM | UACC-257 14.3 µM | NCI-H23 13.3 µM | HL-60 8.87 µM

COC(=O)C1CC/C(=N\c2cccc(C(F)(F)F)c2)N1 (configuration not stated)
inactive: 786-0 > 100 µM | SK-OV-3 > 100 µM | TK-10 > 100 µM | LOX IMVI > 100 µM | K562 > 100 µM | SW-620 > 100 µM | HT-29 > 100 µM | KM12 > 100 µM | SNB-75 > 100 µM | HCC 2998 > 100 µM | RPMI-8226 > 100 µM | SK-MEL-28 > 100 µM | M14 > 100 µM | UACC-257 > 100 µM | NCI-H23 > 100 µM | HL-60 > 100 µM
